Assay results: patent US12011444B2, “N-substituted indole derivatives as PGE2 receptor modulators” (Idorsia Pharmaceuticals Ltd, priority 2015, dated 2024)

Tests used:
EP4 = EP4 (Homo sapiens (Human), UniProt P35408); assay: hEP4 cAMP assay (BT549 breast cancer cells, HTRF cAMP); format: cell-based; conditions: antagonistic activity; mean values where measured multiple times
Experimental: Plate is pre-incubated 45 minutes at room temperature. Subsequently, 2.5 microliters of PGE2 (final conc. 6 nM) are transferred into the assay plate. Plate is incubated 30 minutes at room temperature.

EP2 = EP2 (Homo sapiens (Human), UniProt P43116);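 note: antagonism of PGE2-stimulated cAMP accumulation in SF295 human glioblastoma cells with endogenous EP2, cAMP read by HTRF, expressed relative to DMSO control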
Sequence of EP2 (P43116 whole entry): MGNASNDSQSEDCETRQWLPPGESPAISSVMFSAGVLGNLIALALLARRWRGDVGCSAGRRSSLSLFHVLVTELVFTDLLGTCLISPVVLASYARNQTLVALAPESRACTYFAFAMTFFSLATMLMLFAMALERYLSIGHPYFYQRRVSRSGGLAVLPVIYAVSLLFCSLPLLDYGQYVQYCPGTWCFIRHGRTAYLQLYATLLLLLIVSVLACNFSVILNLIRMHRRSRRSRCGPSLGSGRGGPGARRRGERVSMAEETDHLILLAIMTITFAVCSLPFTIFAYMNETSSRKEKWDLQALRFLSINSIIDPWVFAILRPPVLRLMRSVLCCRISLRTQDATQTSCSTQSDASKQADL

Sequence of EP4 (P35408 whole entry): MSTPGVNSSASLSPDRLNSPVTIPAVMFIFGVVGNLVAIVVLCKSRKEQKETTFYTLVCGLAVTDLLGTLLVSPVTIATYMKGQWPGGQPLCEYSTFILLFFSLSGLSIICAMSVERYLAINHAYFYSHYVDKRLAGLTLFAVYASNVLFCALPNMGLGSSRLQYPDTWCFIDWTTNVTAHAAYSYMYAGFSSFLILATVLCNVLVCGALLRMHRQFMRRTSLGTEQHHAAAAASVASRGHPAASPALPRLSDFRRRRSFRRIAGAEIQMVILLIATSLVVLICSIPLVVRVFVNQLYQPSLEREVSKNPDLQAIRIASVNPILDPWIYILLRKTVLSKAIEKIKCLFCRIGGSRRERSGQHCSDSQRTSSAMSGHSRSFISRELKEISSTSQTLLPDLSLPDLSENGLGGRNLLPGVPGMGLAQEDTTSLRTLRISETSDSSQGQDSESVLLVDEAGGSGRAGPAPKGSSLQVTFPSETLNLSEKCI

SMILES | IC50 (EP4) | IC50 (EP2)
COc1ccc(F)c2c1cc(C)n2CCNc1cc(-c2ccc(-c3cnc(CCC(=O)O)o3)cc2)ncn1 [compound 646] | 312 nM | 48 nM
CCCc1cc(-c2cc(NCCn3c(C)cc4c(OC)ccc(F)c43)ncn2)cc(OC)c1C(=O)O [compound 619] | 249 nM | 9 nM
COc1c(F)cc(Cl)c2c1cc(C)n2CCNc1cc(-c2cc(F)c(C(=O)O)c(SC)c2)ncn1 [compound 509] | 684 nM | 110 nM
Cc1cc2c(Cl)cc(F)cc2n1CCNc1cc(-c2ccc(C(=O)O)c(CC(C)C)c2)ncn1 [compound 419] | 403 nM | 90 nM
CCCc1cc(-c2cc(NCCn3c(C)cc4cc(C)cc(F)c43)ncn2)cc(Cl)c1C(=O)O [compound 414] | 199 nM | 35 nM
COc1cc(-c2cc(NCCn3c(C)cc4c(OC)ccc(F)c43)ncn2)cc(C)c1C(=O)O [compound 406] | 266 nM | 47 nM
COc1ccc(F)c2c1cc(C)n2CCNc1cc(-c2ccc(-c3csc(CC(N)=O)n3)cc2)ncn1 [Example 786, 2-[4-(4-{6-[2-(7-Fluoro-4-methoxy-2-methyl-indol-1-yl)-ethylamino]-pyrimidin-4-yl}-phenyl)-thiazol-2-yl]-acetamide] | 319 nM | 16 nM
Cc1ccc(F)c2c1cc(C)n2CCNc1cc(-c2ccc(-c3ccccn3)cc2)ncn1 [compound 561] | 374 nM | 102 nM
COc1ccc(F)c2c1cc(C)n2CCNc1cc(-c2ccc3oc(C)nc3c2)ncn1 [compound 688] | 680 nM | 80 nM
COc1cc(F)cc2c1cc(C)n2CCNc1cc(-c2ccc(-c3ccno3)cc2)ncn1 [compound 743, [2-(6-Fluoro-4-methoxy-2-methyl-indol-1-yl)-ethyl]-[6-(4-isoxazol-5-yl-phenyl)-pyrimidin-4-yl]-amine] | 315 nM | 10 nM
COc1ccc(F)c2c1cc(C)n2CCNc1cc(-c2ccc(-c3cc(C)no3)cc2)ncn1 [compound 716, [2-(7-Fluoro-4-methoxy-2-methyl-indol-1-yl)-ethyl]-{6-[4-(3-methyl-isoxazol-5-yl)-phenyl]-pyrimidin-4-yl}-amine] | 510 nM | 12 nM
COc1cc(F)c(F)c2c1cc(C)n2CCNc1cc(-c2ccc(-c3oc(CCC(=O)O)nc3C)cc2)ncn1 [compound 655] | 191 nM | 152 nM
COc1ccc(Cl)c2c1cc(C)n2CCNc1cc(-c2ccc(C(=O)O)c(OC(F)F)c2)ncn1 [compound 631] | 320 nM | 14 nM
Cc1nc(-c2ccc(-c3cc(NCCn4c(C)cc5c(C)cc(F)cc54)ncn3)cc2)co1 [compound 565] | 434 nM | 77 nM
COc1cc(-c2cc(NCCn3c(C)cc4c(OC)ccc(F)c43)ncn2)ccc1-c1nnn[nH]1 [compound 683, [2-(7-Fluoro-4-methoxy-2-methyl-indol-1-yl)-ethyl]-{6-[3-methoxy-4-(1H-tetrazol-5-yl)-phenyl]-pyrimidin-4-yl}-amine] | 162 nM | 6 nM
CCOc1cc(-c2cc(NCCn3c(C)cc4c(OC)ccc(F)c43)ncn2)ccc1CNC1CCC1 [compound 597] | 719 nM | 175 nM
CCOc1cc(-c2cc(NCCn3c(C)cc4c(C)cc(F)cc43)nc(C(F)(F)F)n2)sc1C(=O)O [compound 626] | 356 nM | 51 nM
CCOc1cc(-c2cc(NCCn3c(C)cc4c(OC)cc(F)cc43)ncn2)ccc1C(=O)O [compound 403] | 128 nM | 20 nM
CCCc1cc(-c2cc(NCCn3c(C)cc4c(C)cc(F)cc43)ncn2)cc(F)c1C(=O)O [compound 415] | 153 nM | 53 nM
Cc1cc(F)c(F)c2c1cc(C)n2CCNc1cc(-c2ccc3[nH]ccc3c2)ncn1 [compound 696, [2-(6,7-Difluoro-2,4-dimethyl-indol-1-yl)-ethyl]-[6-(1H-indol-5-yl)-pyrimidin-4-yl]-amine] | 131 nM | 42 nM
COc1ccc(F)c2c1cc(C)n2CCNc1cc(-c2ccc(C(=O)NCCN(C)C)cc2)ncn1 [compound 549] | 865 nM | 131 nM

Stronger by IC50 (EP4), values ahead:

IC50 (EP4) | IC50 (EP2) | SMILES
44 nM | 7 nM | COc1ccc(F)c2c1cc(C)n2CCNc1cc(-c2ccc3[nH]ccc3c2)ncn1 [compound 700, [2-(7-Fluoro-4-methoxy-2-methyl-indol-1-yl)-ethyl]-[6-(1H-indol-5-yl)-pyrimidin-4-yl]-amine]
54 nM | 6 nM | CCNc1cc(-c2cc(NCCn3c(C)cc4c5c(cc(Cl)c43)OCO5)ncn2)ccc1-c1nnn[nH]1 [compound 659, [2-(5-Chloro-7-methyl-[1,3]dioxolo[4,5-e]indol-6-yl)-ethyl]-{6-[3-ethylamino-4-(1H-tetrazol-5-yl)-phenyl]-pyrimidin-4-yl}-amine]
65 nM | 1 nM | CCNc1cc(-c2cc(NCCn3c(C)cc4c(OC)ccc(Cl)c43)ncn2)ccc1C(=O)O [compound 396]
56 nM | 4 nM | CCCCOc1cc(-c2cc(NCCn3c(C)cc4c(OC)cc(F)cc43)ncn2)ccc1C(=O)O [compound 611]
76 nM | 49 nM | CCOc1cc(-c2cc(NCCn3c(C)cc4c(OC)cc(F)c(F)c43)ncn2)ccc1C(=O)O [compound 487]
64 nM | 17 nM | CCCc1cc(-c2cc(NCCn3c(C)cc4c(OC)cc(F)cc43)ncn2)cc(F)c1C(=O)O [compound 521]
79 nM | 8 nM | COc1cc(F)cc2c1cc(C)n2CCNc1cc(-c2ccc(C(=O)O)c(OCC(C)C)c2)ncn1 [compound 612]
119 nM | 21 nM | CCCOc1cc(-c2cc(NCCn3c(C)cc4c(OC)cc(F)cc43)ncn2)ccc1C(=O)O [compound 493]
44 nM | 6 nM | CCOc1cc(-c2cc(NCCn3c(Cl)cc4c(OC)ccc(F)c43)ncn2)ccc1C(=O)O [Example 776, 4-{6-[2-(2-Chloro-7-fluoro-4-methoxy-indol-1-yl)-ethylamino]-pyrimidin-4-yl}-2-ethoxy-benzoic acid]
108 nM | 61 nM | CCOc1cc(-c2cc(NCCn3c(C)cc4c(C)ccc(F)c43)ncn2)cc(Cl)c1C(=O)O [compound 433]
18 nM | 3 nM | COc1ccc(F)c2c1cc(C)n2CCNc1cc(-c2ccc(-c3nnn[nH]3)s2)ncn1 [Example 793, [2-(7-Fluoro-4-methoxy-2-methyl-indol-1-yl)-ethyl]-{6-[5-(1H-tetrazol-5-yl)-thiophen-2-yl]-pyrimidin-4-yl}-amine]
111 nM | 25 nM | CCCOc1cc(-c2cc(NCCn3c(C)cc4c(OC)cc(F)cc43)ncn2)cc(Cl)c1C(=O)O [compound 607]
39 nM | 2 nM | CCCCOc1cc(-c2cc(NCCn3c(C)cc4c(OC)ccc(F)c43)ncn2)ccc1C(=O)O [compound 615]
20 nM | 1 nM | CCNc1cc(-c2cc(NCCn3c(C)cc4c(OC)ccc(F)c43)ncn2)ccc1C(=O)O [compound 397]
42 nM | 10 nM | CCCOc1cc(-c2cc(NCCn3c(C)cc4c(OC)ccc(F)c43)ncn2)cc(Cl)c1C(=O)O [compound 609]
89 nM | 52 nM | CCOc1cc(-c2cc(NCCn3c(C)cc4c(OC)cc(F)c(F)c43)ncn2)cc(F)c1-c1nnn[nH]1 [compound 656]
